Measured values published in patent US11535599B2, “Benzisoxazole derivative” (Sumitomo Pharma Co., Ltd., priority 2020, dated 2022).

Key:
[1] = system: levodopa-induced dyskinesia in 6-OHDA unilateral lesion model; assay: Effect for inhibiting levodopa-induced dyskinesia; assay type: in vivo, rat; conditions: Examples 30 or 100 mg/kg, rasagiline 0.2 or 0.6 mg/kg, daily for two weeks
Source text: A unilateral lesion model of nigrostriatal dopamine neuron induced with 6-hydroxydopamine (6-OHDA) is broadly used for evaluating the drug efficacy for treating Parkinson's disease, as mentioned in Test 2. In addition, it is known that dyskinesia is developed when the present model receives repetitive administration of levodopa, which is similar to the phenomenon that patients of Parkinson's disease who have received long-term administration of levodopa develop dyskinesia. With the present model, the effect of the present compound on the dyskinesia induced by repetitive administration of levodopa was evaluated. As shown in Test 2, a unilateral lesion model of nigrostriatal dopamine neuron was prepared. One day before starting the repetitive administration of levodopa, levodopa methyl ester hydrochloride (5.86 mg/kg) containing benserazide hydrochloride ([…]) (whose ratio was 4:1 in terms of free form) was intraperitoneally administered to the model, and the rotational behavior of the model was observed from 20 minutes to 140 minutes after the administration. The models were classified considering three factors of the total rotation number (20-140 minutes after the administration), the later term of the rotation (120-140 minutes after the administration), and the rotational duration, so that the dispersion of each group could be equal. Two days after the classification, the repetitive administration of levodopa methyl ester hydrochloride (6 mg/kg) and benserazide hydrochloride (12 mg/kg) once a day for two weeks was started. […] The evaluation of dyskinesia was done after one week and two weeks of the repetitive administration. […]

human CA-II = human CA-II (Homo sapiens (Human), UniProt P00918); assay: Activity for inhibiting carbonic anhydrase (CA); assay type: biochemical; conditions: 4-nitrophenyl acetate substrate
Description: CA is a zinc metalloenzyme family which catalyzes reversible hydration between carbon dioxide, and bicarbonate and proton.
As a substance for decomposition by CA-II, 4-nitrophenyl acetate was used herein. 4-Nitrophenyl acetate is […] with CA-II to produce 4-nitrophenol. […] To the diluted solution were added […] (final concentration: 5 mmol/L) and the present compound of each concentration, and the mixture was incubated at 37° C. under shading for 30 minutes. […] The IC50 of the compound was obtained through the two-parameter logistic model with the inhibitory rate data in each concentration which was obtained from plural trials.

Rat striatum MAOB = Rat striatum MAOB (Rattus norvegicus (Rat), UniProt P19643); assay: Activity for inhibiting monoamine oxidase B (MAOB); assay type: biochemical; conditions: [14C] β-PEA substrate; read-out: Rat striatum MAOB IC50
Rat striatum MAOB, sequence (P19643 whole entry): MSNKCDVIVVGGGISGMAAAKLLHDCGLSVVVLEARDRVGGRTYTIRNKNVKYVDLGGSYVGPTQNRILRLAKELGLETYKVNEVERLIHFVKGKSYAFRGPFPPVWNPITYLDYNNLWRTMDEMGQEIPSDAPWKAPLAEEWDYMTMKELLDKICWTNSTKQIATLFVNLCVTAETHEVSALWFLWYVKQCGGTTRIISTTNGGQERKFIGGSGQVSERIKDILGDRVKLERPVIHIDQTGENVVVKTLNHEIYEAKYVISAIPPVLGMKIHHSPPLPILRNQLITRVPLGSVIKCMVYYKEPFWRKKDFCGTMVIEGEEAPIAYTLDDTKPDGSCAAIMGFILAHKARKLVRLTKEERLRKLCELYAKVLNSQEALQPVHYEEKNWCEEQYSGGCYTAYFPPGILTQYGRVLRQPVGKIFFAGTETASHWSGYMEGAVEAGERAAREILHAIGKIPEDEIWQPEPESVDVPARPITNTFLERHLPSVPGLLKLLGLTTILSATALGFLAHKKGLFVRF
Description: MAOB is an enzyme involved in oxidative de-amino acid reaction of an endogenous monoamine neurotransmitter such as dopamine. […] The effect of the present compounds for inhibiting MAOB in rat striatum and simian striatum was tested.
Mitochondria⋅synaptosome fraction containing MAOB was prepared according to the following procedure. To striata of male Slc: Wistar rat (Japan SLC, Inc.) or male cynomolgus monkey (HAMRI CO., LTD.) was added 0.32 mol/L aqueous sucrose by 10 mL per 1 gram as wet weight of the tissue, and the mixture was homogenized. The homogenate was centrifuged at 4° C. at 1,000 g for 10 minutes, and the obtained supernatant was centrifuged again at 4° C. at 17,200 g for 20 minutes. To the obtained precipitate was added a prepared buffer solution (10 mmol/L Tris-HCl buffer solution (pH 7.4), 0.25 mol/L aqueous sucrose, 0.5 mmol/L EDTA-2K) by 10 mL per 1 gram as wet weight of the original tissue, and the mixture was centrifuged again at 4° C. at 17,200 g for 20 minutes. To the obtained precipitate was added the prepared buffer solution by 40 mL per 1 gram as wet weight of the original tissue. The mixture was suspended to be used as an enzyme homogenate solution.
As a substance to be degraded by MAOB, ^14C-labeled β-phenylethylamine ([^14C] β-PEA) was used. [^14C] β-PEA and the present compound solution diluted to each concentration were incubated with the enzyme homogenate solution at 37° C. for a given period, and then the reaction was stopped by adding 3 mol/L cold HCl thereto. The reaction product was extracted with a mixture of water-saturated toluene and ethyl acetate (1:1). The supernatant organic layer was separated, a liquid scintillation cocktail (ACSII, GE Healthcare) was added to the separated organic layer, and the radioactivity was measured with a liquid scintillation counter (TRI-CARB 3100TR, Packard). The IC50 value of each compound was determined based on two parameter logistic model with the inhibitory data of each concentration, said data were obtained from plural trials.

[2] = system: tacrine-induced Parkinson's disease tremor model; assay: Anti-tremor effect in tacrine-induced Parkinson's disease tremor model; assay type: in vivo, rat; conditions: Example 1 10-100 mg/kg, Example 13 3-100 mg/kg oral; tacrine 2.5 mg/kg i.p.; counted 10 minutes
Source text: One of the causes of tremor in Parkinson's disease is thought to be a decrease of intracerebral dopamine content, said decrease can hyper-activate the cholinergic nervous system in a counteractive manner to cause the symptom. In the present model, an acetylcholinesterase inhibitor activates the cholinergic nervous system, which breaks down the balance between intracerebral dopamine and acetylcholine to initiate a tremor symptom. Thus, the model is well known as a drug-induced model suffering from tremor in Parkinson's disease. With the present model, the effect of the present compound for inhibiting the tremor in Parkinson's disease was evaluated.
In the present test, male Slc: SD rats (Japan SLC, Inc.) were used. The present compound (Example 1 (10 mg/kg, 30 mg/kg, or 100 mg/kg), Example 13 (3 mg/kg, 10 mg/kg, 30 mg/kg, or 100 mg/kg)) was orally administered to the rat. One hour later, tacrine (2.5 mg/kg) was intraperitoneally administered to the rat. Ten minutes after the administration of tacrine, the number of tremulous jaw movements was counted for 10 minutes.

Structure (SMILES)	dyskinesia induced by repetitive administration of levodopa (AIMS score) [1]	IC50 (human CA-II) [µM]	IC50 (Rat striatum MAOB) [µM]	number of tremulous jaw movements [2]
CC(c1noc2ccccc12)S(N)(=O)=O (centres unmarked) [Example 1, 1-(Benzo[d]isoxazol-3-yl)ethane-1-sulfonamide]	the onset of dyskinesia induced by repetitive administration of levodopa was inhibited	26.5	349	significantly decreased the number of tremulous jaw movements per unit time
C[C@H](c1noc2ccccc12)S(N)(=O)=O [Example 13, (1R)-1-(1,2-benzoxazol-3-yl)ethane-1-sulfonamide]	the onset of dyskinesia induced by repetitive administration of levodopa was inhibited	18.2	> 600	significantly decreased the number of tremulous jaw movements per unit time
